# How the values were obtained:
# [1] = system: L. pneumophila serogroup 1; assay: microbe, parasite or virus in culture; format: cell-based, Legionella pneumophila; conditions: Legionella pneumophila; for MIC: 48 h, read-out: MIC Range; for MIC90: L. pneumophila serogroup 1 (n = 85)
# L. longbeacheae = assay: organism not typed; format: cell-based; conditions: for MIC: 48 h, read-out: MIC Range
# L. dumoffii = assay: organism not typed; format: cell-based; conditions: for MIC: 48 h, read-out: MIC Range
# L. micadadei = assay: organism not typed; format: cell-based, L. micdadei; conditions: for MIC: 48 h, read-out: MIC Range
# [2] = system: Erythromycin-susceptible Legionella spp. other than L. pneumophila; format: cell-based; conditions: Erythromycin-susceptible Legionella spp. (n = 13); 4 × MIC; mean ± SD
# [3] = system: L. pneumophila serogroup 5; assay: microbe, parasite or virus in culture; format: cell-based; conditions: Legionella pneumophila; for MIC: 48 h, read-out: MIC Range
# [4] = system: L. pneumophila serogroup 7; assay: microbe, parasite or virus in culture; format: cell-based; conditions: Legionella pneumophila; for MIC: 48 h, read-out: MIC Range
# [5] = system: isolates of Legionella pneumophila and other Legionella spp.; assay: microbe, parasite or virus in culture; format: cell-based
# [6] = system: L. pneumophila serogroup 2; assay: microbe, parasite or virus in culture; format: cell-based; conditions: Legionella pneumophila; for MIC: 48 h, read-out: MIC Range
# [7] = system: L. pneumophila serogroup 4; assay: microbe, parasite or virus in culture; format: cell-based; conditions: Legionella pneumophila; for MIC: 48 h, read-out: MIC Range
# [8] = system: Erythromycin-susceptible L. pneumophila; format: cell-based, Legionella pneumophila; conditions: Erythromycin-susceptible L. pneumophila (n = 15); 4 × MIC; mean ± SD
# Other Legionella spp. = assay: microbe, parasite or virus in culture; format: cell-based; conditions: for MIC: 48 h, read-out: MIC Range
# [9] = system: L. pneumophila serogroup 8, 9; assay: microbe, parasite or virus in culture; format: cell-based; conditions: Legionella pneumophila; for MIC: 48 h, read-out: MIC Range
# [10] = system: L. pneumophila serogroup 3; assay: microbe, parasite or virus in culture; format: cell-based; conditions: Legionella pneumophila; for MIC: 48 h, read-out: MIC Range
# [11] = system: L. pneumophila serogroup 6; assay: microbe, parasite or virus in culture; format: cell-based; conditions: Legionella pneumophila; for MIC: 48 h, read-out: MIC Range
SMILES,MIC50 [1] [µg/mL],MIC [1] [µg/mL],MIC90 [1] [µg/mL],MIC50 (L. longbeacheae) [µg/mL],MIC90 (L. longbeacheae) [µg/mL],MIC (L. longbeacheae) [µg/mL],MIC50 (L. dumoffii) [µg/mL],MIC90 (L. dumoffii) [µg/mL],MIC (L. dumoffii) [µg/mL],MIC50 (L. micadadei) [µg/mL],MIC90 (L. micadadei) [µg/mL],MIC (L. micadadei) [µg/mL],Mean PAE [2] [h],MIC50 [3] [µg/mL],MIC90 [3] [µg/mL],MIC50 [4] [µg/mL],MIC90 [4] [µg/mL],MIC [4] [µg/mL],MIC90 [5] [µg/mL],MIC50 [6] [µg/mL],further results
Cc1c(F)c(N2CCNC(C)C2)cc2c1c(=O)c(C(=O)O)cn2C1CC1 (stereo not shown) [Grepafloxacin],0.016,0.004 to 0.06,0.016,0.03,0.06,0.004 to 0.06,0.06,0.06,0.06,0.008,0.016,0.004 to 0.016,1.67 ± 1,0.016,0.03,≤ 0.004,0.008,0.004 to 0.008,0.016,0.008,MIC90 [6]: 0.016 µg/mL; MIC [6]: 0.004 to 0.03 µg/mL; MIC50 [7]: 0.008 µg/mL; MIC90 [7]: 0.016 µg/mL; MIC [7]: 0.008 to 0.016 µg/mL; Mean PAE [8]: 2.62 ± 3 h; MIC50 (Other Legionella spp.): 0.03 µg/mL; MIC90 (Other Legionella spp.): 0.03 µg/mL; MIC (Other Legionella spp.): 0.004 to 0.03 µg/mL; MIC50 [9]: 0.008 µg/mL; MIC90 [9]: 0.008 µg/mL; MIC [9]: 0.008 µg/mL; MIC50 [10]: 0.008 µg/mL; MIC90 [10]: 0.016 µg/mL; MIC [10]: 0.004 to 0.016 µg/mL; MIC50 [11]: 0.008 µg/mL; MIC90 [11]: 0.016 µg/mL; MIC [11]: 0.004 to 0.016 µg/mL
C[C@H]1COc2c(N3CCN(C)CC3)c(F)cc3c(=O)c(C(=O)O)cn1c23 [Levofloxacin],0.016,0.004 to 0.016,0.016,0.016,0.016,0.008 to 0.016,0.016,0.016,0.016,0.016,0.016,0.008 to 0.016,1.35 ± 1,0.008,0.016,0.008,0.016,0.008 to 0.016,0.016,0.008,MIC [3]: 0.004 to 0.016 µg/mL; MIC90 [6]: 0.008 µg/mL; MIC [6]: 0.004 to 0.016 µg/mL; MIC50 [7]: 0.016 µg/mL; MIC90 [7]: 0.016 µg/mL; MIC [7]: 0.004 to 0.016 µg/mL; Mean PAE [8]: 2.14 ± 2 h; MIC50 (Other Legionella spp.): 0.016 µg/mL; MIC90 (Other Legionella spp.): 0.016 µg/mL; MIC (Other Legionella spp.): 0.008 to 0.06 µg/mL; MIC50 [9]: 0.008 µg/mL; MIC90 [9]: 0.016 µg/mL; MIC [9]: 0.008 to 0.016 µg/mL; MIC50 [10]: 0.008 µg/mL; MIC90 [10]: 0.016 µg/mL; MIC [10]: 0.008 to 0.016 µg/mL; MIC50 [11]: 0.008 µg/mL; MIC90 [11]: 0.016 µg/mL; MIC [11]: 0.008 to 0.016 µg/mL
COc1c(N2C[C@@H]3CCCN[C@@H]3C2)c(F)cc2c(=O)c(C(=O)O)cn(C3CC3)c12 [Moxifloxacin],0.016,0.004 to 0.03,0.016,0.016,0.03,0.008 to 0.03,0.03,0.03,0.008 to 0.03,0.016,0.03,0.008 to 0.03,1.18 ± 2,0.016,0.016,≤ 0.004,0.016,0.004 to 0.016,0.016,0.008,MICs fold more active than erythromycin (L. micadadei): 5 fold; MIC [3]: 0.004 to 0.03 µg/mL; MIC90 [6]: 0.008 µg/mL; MIC [6]: 0.004 to 0.016 µg/mL; MIC50 [7]: 0.016 µg/mL; MIC90 [7]: 0.016 µg/mL; MIC [7]: 0.004 to 0.016 µg/mL; Mean PAE [8]: 3.59 ± 3 h; MIC50 (Other Legionella spp.): 0.008 µg/mL; MIC90 (Other Legionella spp.): 0.03 µg/mL; MIC (Other Legionella spp.): 0.008 to 0.03 µg/mL; MIC50 [9]: 0.016 µg/mL; MIC90 [9]: 0.016 µg/mL; MIC [9]: 0.016 µg/mL; MIC50 [10]: 0.008 µg/mL; MIC90 [10]: 0.016 µg/mL; MIC [10]: 0.004 to 0.016 µg/mL; MIC50 [11]: 0.008 µg/mL; MIC90 [11]: 0.016 µg/mL; MIC [11]: 0.004 to 0.016 µg/mL
CC1COc2c(N3CCN(C)CC3)c(F)cc3c(=O)c(C(=O)O)cn1c23 (stereo not shown) [Ofloxacin],0.03,0.008 to 0.03,0.03,0.03,0.03,0.016 to 0.03,0.03,0.03,0.03,0.03,0.03,0.03,3.04 ± 2,0.016,0.03,0.03,0.03,0.03,0.03,0.016,MICs fold more active than erythromycin (L. micadadei): 5 fold; MIC [3]: 0.008 to 0.03 µg/mL; MIC90 [6]: 0.03 µg/mL; MIC [6]: 0.008 to 0.03 µg/mL; MIC50 [7]: 0.03 µg/mL; MIC90 [7]: 0.03 µg/mL; MIC [7]: 0.008 to 0.03 µg/mL; Mean PAE [8]: 3.53 ± 3 h; MIC50 (Other Legionella spp.): 0.016 µg/mL; MIC90 (Other Legionella spp.): 0.06 µg/mL; MIC (Other Legionella spp.): 0.004 to 0.06 µg/mL; MIC50 [9]: 0.03 µg/mL; MIC90 [9]: 0.03 µg/mL; MIC [9]: 0.03 µg/mL; MIC50 [10]: 0.016 µg/mL; MIC90 [10]: 0.03 µg/mL; MIC [10]: 0.016 to 0.03 µg/mL; MIC50 [11]: 0.03 µg/mL; MIC90 [11]: 0.03 µg/mL; MIC [11]: 0.008 to 0.03 µg/mL

# From patent publication US6340689B1 (priority 1999, dated 2002)
